What all share (experiment): NCI-60 cell line screen, 48 h
Assay [1] has as its system 786-0 renal.
The test system of assay [2] is A549 NSCLC.
In assay [3] the test system is HOP-62 NSCLC.
Assay [4] deals with MOLT-4 leukemia.
The test system of assay [5] is OVCAR-3 ovarian.
Assay [6] has as its system SF-268 CNS.
The subject of assay [7] is SK-MEL-2 melanoma.
Assay [8] deals with SR leukemia.
For assay [9], the system named is DU-145 prostate.
The test system of assay [10] is SNB-19 CNS.

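A five-concentration, 48-hour dose response in 96-well plates underlies each endpoint, interpolated linearly between surrounding concentrations. At the GI50, growth is halved. TGI: total growth inhibition.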

For `CC1(C)CCc2cc3c(cc2O1)OC(C)(C)C1c2c(ccc4c2CCC(C)(C)O4)OC31` (stereo unspecified), the TGI in assay [1], in [2], in assay [3], in assay [4], in assay [5] and in [6] was more than 100 µM in each case. Besides, the TGI in assay [7] and in assay [8] was more than 100 µM in each case.

In the case of `BrP(NC1CCCCCC1)(c1ccccc1)(c1ccccc1)c1ccccc1`, the TGI in [1] stood at 32.3 µM; in assay [2], 25.8 µM; in [9], 29.9 µM; in assay [3], 35.5 µM; in [5], 9.94 µM; in assay [6], 11.1 µM. The TGI in assay [7] is 8.53 µM; in assay [10] it was 16.8 µM; in assay [8], more than 100 µM.

On to `COc1cc(C2[C@H]3C(=O)N(c4ccc(Cc5ccc(N6C(=O)[C@@H]7ON(c8ccccc8)C(c8cc(OC)c(OC)c(OC)c8)[C@@H]7C6=O)cc5)cc4)C(=O)[C@H]3ON2c2ccccc2)cc(OC)c1OC` (stereo partly specified), for which the TGI in [1], in [2], in assay [3], in [4], in assay [5] and in assay [6] was more than 100 µM in each case. Besides, the TGI in [7], in assay [10] and in [8] was more than 100 µM throughout.

As for `CC(C)O/C=C1\C(=O)C2(SCCS2)[C@H]2CCCC[C@@H]12`, the TGI was more than 100 µM in assay [1]; more than 100 µM in [2]; more than 100 µM in [3]; 46.4 µM in assay [4]; more than 100 µM in assay [6]; more than 100 µM in assay [7]. For the same molecule, the TGI in [10] and in assay [8] was more than 100 µM in each case.

`CSc1nc2c(nc(N)n2C2OCC(O)C(O)C2O)c(=O)[nH]1` (stereo unspecified): the TGI in [1], in assay [2], in assay [3], in assay [4], in assay [5] and in [6] was more than 100 µM each time. In addition, the TGI in assay [10] and in assay [8] was more than 100 µM throughout.

With `Cn1c(=O)c(C(c2ccccc2)c2c(O)c3ccccc3n(C)c2=O)c(O)c2ccccc21`, the TGI in assay [1], in [2], in assay [4], in assay [5], in [6] and in assay [7] was more than 100 µM in each case. In addition, the TGI in assay [10] and in [8] was more than 100 µM in each case.

In the case of `COc1ccc(CNc2nc3ccccc3nc2-c2cccs2)cc1OC`, the TGI in assay [1], in [2], in assay [3], in assay [4], in assay [5] and in [6] was more than 100 µM throughout. Besides, the TGI in assay [7], in assay [10] and in assay [8] was more than 100 µM in each case.

Take `Cc1c(N2C(=O)/C(=C\c3ccc(O)cc3)N=C2c2ccccc2)c(=O)n(-c2ccccc2)n1C`: the GI50 in assay [1], in [2], in [9], in assay [3], in assay [4] and in assay [5] was more than 100 µM each time. Further, the GI50 in [6], in assay [7] and in assay [10] was more than 100 µM throughout. In addition, the TGI in [1], in assay [2], in assay [9], in assay [3], in assay [4] and in assay [5] was more than 100 µM each time. The TGI in assay [6], in [7] and in assay [10] was more than 100 µM throughout.

Regarding `CCN(CC)C(=O)c1c(N2CCOCC2)cc(N(CC)CC)oc1=O`, the TGI in [1], in assay [2], in assay [3], in [4], in [5] and in assay [6] was more than 100 µM throughout. The TGI in [7], in [10] and in [8] was more than 100 µM throughout.

As to `CCC[CH2][Sn]1([CH2]CCC)[O]C(=O)C[S]1`, the GI50 is 1.49 µM in assay [1]; 8.9 µM in [2]; 6.86 µM in assay [3]; 1.39 µM in assay [4]; 1.57 µM in assay [5]; 1.67 µM in [6]. Besides, the GI50 in assay [7] is 0.975 µM; in [10], 1.22 µM; in assay [8], 1.13 µM. The TGI worked out at 2.83 µM in assay [1]; 23.5 µM in assay [2]; 18 µM in [3]; 5.46 µM in [4]; 3.03 µM in assay [5]; 4.83 µM in [6]. Also, the TGI worked out at 2.33 µM in assay [7], 2.5 µM in assay [10] and 7.09 µM in assay [8].

For the molecule `COC1=NN2C(OC)(c3ccccc3)c3c(-c4ccccc4)sc(-c4ccccc4)c3C2(c2ccccc2)S1` (stereo unspecified), the TGI was more than 100 µM in assay [1]; more than 100 µM in assay [2]; more than 10 µM in assay [3]; more than 100 µM in [4]; more than 10 µM in assay [5]; more than 100 µM in assay [6]. The TGI in assay [7], in assay [10] and in assay [8] was more than 100 µM throughout.

Take `COc1cc2c(cc1OCCCCC(=O)Nc1ccc(-c3nc4ccccc4s3)cc1)N=C[C@@H]1CCCN1C2=O`: the GI50 in assay [1] is 1.56 µM; in assay [2] it was 3.38 µM; in [3], 2.45 µM; in assay [4] it was 1.63 µM; in [5] it was 1.86 µM; in [6], 2.04 µM. Also, the GI50 in [7] is 1.95 µM; in assay [10] it was 2.68 µM; in assay [8], 0.548 µM. For the same molecule, the TGI in assay [1] is 3.51 µM; in assay [2], 11.2 µM; in [3], 6.62 µM; in [4], 5.52 µM; in assay [5], 8.01 µM; in assay [6] it was 5.66 µM. In addition, the TGI was determined as 4.22 µM in [7], 11.2 µM in assay [10] and 9.48 µM in [8].

Source of the values: PubChem BioAssay (NCI).
